US12378247B2, “Mesylate salt of para-topolin, compositions containing said salt and use thereof” (USTAV EXPERIMENTALNI BOTANIKY AV CR, V. V. I., priority 2020, dated 2025)
Values joined by “and” are separate entries in the source; they are usually repeats but may differ in a detail not shown here. Equal entries are not always repeated. Structures can show the parent of a compound that is named as a salt.

Experiments:
Disproportionation study = type: physicochemical; settings: 50 mg in 1 ml distilled water, ca. 48 hours, recrystallized
Description: A 50 mg sample of crystalline para-topolin mesylate salt was dissolved in 1 ml of distilled water, kept in solution for ca. 48 hours and then crystallized and checked by XRPD for disproportionation.

[1] = Stability study by XRPD diffraction; type: physicochemical; settings: 25° C., on light, after 30 days
Description: X-ray powder diffraction studies were performed on a Bruker D8 Advance ECO diffractometer with Cu K-alpha radiation and SSD160 detector. Approximately 5 mg of sample was gently compressed on the XRPD sample holder. The sample was then loaded into a Bruker D8-Discover diffractometer in transmission mode and analyzed using the experimental conditions shown below: XRPD measurement conditions
Sample stability was tested at 25° C. for […] on light. […] XRPD of samples were taken after 30 days to investigate any solid form change (any difractogram/pattern change).

[2] = Calcein AM cytotoxicity assay, MCF7; type: cell-based; settings: human, MCF-7 cells (breast adenocarcinoma); MCF7, 3-day Calcein-AM assay; read-out: Cytotoxic activity IC50
Source text: (§1) Because toxic compounds negatively influence metabolic processes of cells, many standard cytotoxicity assays are based on measurement of metabolisation rate of various artificial substrates. Resulting product is then quantified, for example, by means of spectrometry. The assays can be easily modified for use in 96-well plates. For evaluation of cytotoxicity of the […] of this invention, a microtiter assay based on quantification of metabolisation of Calcein AM was used. The assay is widely used in drug screening programs and in chemosensitivity testing. In live cells, Calcein AM is enzymatically hydrolysed and accumulation of the resulting calcein is manifested by green fluorescence. […]
(§2) Approximately 10,000 cells in 80 μL of medium were seeded into 96-well microtitre plates. […] The fluorescence of free calcein was then quantified using a Fluoroscan Ascent fluorometer (Microsystems), and the percentage of surviving cells in each well was calculated by dividing the OD obtained from each cell with exposed cells by the mean OD obtained from control wells×100%. […]

[3] = Aqueous solubility (saturated solution, HPLC); type: physicochemical; settings: thermodynamic from solid, water, read-out: concentration of saturated solution in water (aqueous solubility)
Description: Aqueous solubility was measured using the following protocol. Supersaturated solution of para-topolin mesylate salt in water was prepared. The solution was filtrated from visible undissolved particles of the salt to obtain saturated solution. Saturated solution was diluted 1:10 000 and measured using HPLC Alliance Waters 2690 with C18 Symmetry column with the diameter 2.1 mm and 150 mm length with a porosity of 5 μm. The sample was dissolved in the mobile phase (MeOH:HCOONH4-1:9). The sample was washed with a methanol gradient (10-90%, 35 min) at pH 4 and a flow rate of 0.3 ml/min. The absorbances of the components were detected in the UV region at 210-400 nm. The peak area was 2729231. Obtained peak area was compared to area peaks measured at certain concentration and the final concentration of saturated solution was determined.

[4] = Calcein AM cytotoxicity assay, K562; type: cell-based; settings: human, K562 cells (chronic myelogenous leukaemia), K562, 3-day Calcein-AM assay; read-out: Cytotoxic activity IC50
Source text: as §1, §2

[5] = Calcein AM cytotoxicity assay, G361; type: cell-based; settings: human, G361 cells (malignant melanoma); G361, 3-day Calcein-AM assay; read-out: Cytotoxic activity IC50
Source text: as §1, §2

[6] = Calcein AM cytotoxicity assay, RPMI 8226; type: cell-based; settings: human, RPMI 8226 cells (multiple myeloma); RPMI 8226, 3-day Calcein-AM assay; read-out: Cytotoxic activity IC50
Source text: as §1, §2

[7] = water; reported value; cited from earlier work
[8] = system: MCF-7 (breast adenocarcinoma); experiment: Calcein AM cytotoxicity assay, MCF7; type: cell-based; settings: MCF7, 3-day Calcein-AM assay; read-out: Cytotoxic activity IC50
Source text: as §1, §2

[9] = system: K562 (chronic myelogenous leukaemia); experiment: Calcein AM cytotoxicity assay, K562; type: cell-based; settings: K562, 3-day Calcein-AM assay; read-out: Cytotoxic activity IC50
Source text: as §1, §2

[10] = system: G361 (malignant melanoma); experiment: Calcein AM cytotoxicity assay, G361; type: cell-based; settings: G361, 3-day Calcein-AM assay; read-out: Cytotoxic activity IC50
Source text: as §1, §2

[11] = system: RPMI 8226 (multiple myeloma); experiment: Calcein AM cytotoxicity assay, RPMI 8226; type: cell-based; settings: RPMI 8226, 3-day Calcein-AM assay; read-out: Cytotoxic activity IC50
Source text: as §1, §2

Row | SMILES | Disproportionation (XRPD) (Disproportionation study) | Solid-state stability (structure, color, XRPD pattern change) ([1]; listed as crystalline para-topolin mesylate salt) | Solid-state stability (structure, color, XRPD pattern change) ([1]; listed as para-topolin mesylate crystalline salt) | IC50 at 72 h [2] | Solubility [3] | IC50 at 72 h [4] | IC50 at 72 h [5] | IC50 at 72 h [6] | aqueous solubility (reported) [7] | IC50 [8] | IC50 [9] | IC50 [10] | IC50 [11]
1 | Oc1ccc(CNc2ncnc3nc[nH]c23)cc1 [para-topolin mesylate, 6-(4-hydroxybenzylamino) purine (para-topolin) mesylate (methylsulphonate)] | No signs of disproportionation | No structure nor color change | no structural pattern changes detected | > 167 µM | ~1.2e+06 µM and ~407000 µg/mL | > 167 µM | > 167 µM | > 167 µM |  |  |  |  | 
2 | Oc1ccc(CNc2ncnc3nc[nH]c23)cc1 [para-topolin, 6-(4-Hydroxybenzylamino) purine] |  |  |  |  |  |  |  |  | < 40 µg/mL | > 167 µM | 140 µM | > 167 µM | > 167 µM
